Columns and labels:
[1] = biological target: Histamine H1 receptor (Homo sapiens, UniProt P35367); experiment: GPCRScan assay: inhibition of H1; design: radioligand conc. used [nm] 0.6 – 2.0, parental cells stable HEK
[2] = tested on: Tyrosine-protein kinase ABL1 (Homo sapiens), P00519 [Q252H]; details: Compound concentration 1000.0 nM
[3] = tested on: ALK tyrosine kinase receptor (Homo sapiens), Q9UM73 [L1196M]; details: Compound concentration 1000.0 nM
[4] = biological target: Aurora kinase B (Homo sapiens) (UniProt Q96GD4); details: Compound concentration 1000.0 nM
[5] = biological target: Cytoplasmic tyrosine-protein kinase BMX (Homo sapiens) (UniProt P51813); details: Compound concentration 1000.0 nM
[6] = biological target: Cyclin-dependent kinase 5 (Homo sapiens) (UniProt Q00535); details: Compound concentration 1000.0 nM
[7] = biological target: Cyclin-dependent kinase-like 1 (Homo sapiens) (UniProt Q00532); details: Compound concentration 1000.0 nM
[8] = biological target: Cyclin-dependent kinase-like 3 (Homo sapiens) (UniProt Q8IVW4); details: Compound concentration 1000.0 nM
[9] = biological target: Dual specificity protein kinase CLK1 (Homo sapiens) (UniProt P49759); details: Compound concentration 1000.0 nM
Sequence of Dual specificity protein kinase CLK1 (Homo sapiens) (P49759 whole entry, looked up): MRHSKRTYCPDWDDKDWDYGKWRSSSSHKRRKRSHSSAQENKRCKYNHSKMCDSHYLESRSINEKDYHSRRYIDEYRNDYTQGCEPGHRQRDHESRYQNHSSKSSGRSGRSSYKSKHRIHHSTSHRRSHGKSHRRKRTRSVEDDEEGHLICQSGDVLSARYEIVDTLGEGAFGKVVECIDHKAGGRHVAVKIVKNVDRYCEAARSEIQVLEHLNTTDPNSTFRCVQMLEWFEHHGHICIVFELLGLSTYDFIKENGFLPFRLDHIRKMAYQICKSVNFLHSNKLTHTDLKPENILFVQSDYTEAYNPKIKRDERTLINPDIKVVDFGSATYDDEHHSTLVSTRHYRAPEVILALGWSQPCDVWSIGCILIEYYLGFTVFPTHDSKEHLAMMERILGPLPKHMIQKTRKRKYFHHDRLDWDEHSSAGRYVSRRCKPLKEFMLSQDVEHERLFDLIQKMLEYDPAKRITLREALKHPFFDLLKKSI

[10] = biological target: Macrophage colony-stimulating factor 1 receptor (Homo sapiens) (UniProt P07333); details: Compound concentration 1000.0 nM
[11] = biological target: Serine/threonine-protein kinase DCLK1 (Homo sapiens) (UniProt O15075); details: Compound concentration 1000.0 nM
[12] = tested on: Epidermal growth factor receptor (Homo sapiens), P00533 [UNDEFINED MUTATION]; details: Compound concentration 1000.0 nM
[13] = biological target: Ephrin type-A receptor 2 (Homo sapiens) (UniProt P29317); details: Compound concentration 1000.0 nM
[14] = biological target: Ephrin type-B receptor 1 (Homo sapiens) (UniProt P54762); details: Compound concentration 1000.0 nM
[15] = biological target: Tyrosine-protein kinase Fer (Homo sapiens) (UniProt P16591); details: Compound concentration 1000.0 nM
[16] = tested on: Receptor-type tyrosine-protein kinase FLT3 (Homo sapiens), P36888 [UNDEFINED MUTATION]; details: Compound concentration 1000.0 nM
[17] = biological target: G protein-coupled receptor kinase 3 (Homo sapiens) (UniProt P35626); details: Compound concentration 1000.0 nM
Sequence of G protein-coupled receptor kinase 3 (Homo sapiens) (P35626 whole entry): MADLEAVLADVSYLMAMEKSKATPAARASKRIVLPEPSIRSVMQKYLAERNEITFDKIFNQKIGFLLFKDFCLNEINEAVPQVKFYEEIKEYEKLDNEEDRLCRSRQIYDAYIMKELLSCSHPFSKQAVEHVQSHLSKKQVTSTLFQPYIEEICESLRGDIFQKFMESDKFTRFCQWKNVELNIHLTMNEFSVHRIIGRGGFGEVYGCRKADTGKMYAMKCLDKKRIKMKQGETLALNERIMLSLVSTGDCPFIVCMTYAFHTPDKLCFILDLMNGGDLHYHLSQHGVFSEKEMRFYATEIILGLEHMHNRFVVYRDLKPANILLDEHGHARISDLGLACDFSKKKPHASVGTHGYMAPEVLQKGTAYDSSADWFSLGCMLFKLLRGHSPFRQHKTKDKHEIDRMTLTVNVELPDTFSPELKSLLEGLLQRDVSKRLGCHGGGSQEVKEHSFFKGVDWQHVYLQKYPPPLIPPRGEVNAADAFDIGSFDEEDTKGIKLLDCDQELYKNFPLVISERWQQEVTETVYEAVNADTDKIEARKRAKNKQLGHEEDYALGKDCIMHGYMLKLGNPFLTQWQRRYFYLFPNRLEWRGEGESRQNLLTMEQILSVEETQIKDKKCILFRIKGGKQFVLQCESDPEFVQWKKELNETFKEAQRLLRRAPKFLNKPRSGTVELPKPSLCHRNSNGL

[18] = biological target: Mitogen-activated protein kinase 8 (Homo sapiens) (UniProt P45983); details: Compound concentration 1000.0 nM
[19] = tested on: Mast/stem cell growth factor receptor Kit (Homo sapiens), P10721 [L576P]; details: Compound concentration 1000.0 nM
[20] = biological target: Serine/threonine-protein kinase LATS1 (Homo sapiens) (UniProt O95835); details: Compound concentration 1000.0 nM
[21] = tested on: Leucine-rich repeat serine/threonine-protein kinase 2 (Homo sapiens), Q5S007 [G2019S]; details: Compound concentration 1000.0 nM
[22] = biological target: Mitogen-activated protein kinase kinase kinase kinase 3 (Homo sapiens) (UniProt Q8IVH8); details: Compound concentration 1000.0 nM
[23] = biological target: Dual specificity mitogen-activated protein kinase kinase 2 (Homo sapiens) (UniProt P36507); details: Compound concentration 1000.0 nM
Sequence of Dual specificity mitogen-activated protein kinase kinase 2 (Homo sapiens) (P36507 whole entry): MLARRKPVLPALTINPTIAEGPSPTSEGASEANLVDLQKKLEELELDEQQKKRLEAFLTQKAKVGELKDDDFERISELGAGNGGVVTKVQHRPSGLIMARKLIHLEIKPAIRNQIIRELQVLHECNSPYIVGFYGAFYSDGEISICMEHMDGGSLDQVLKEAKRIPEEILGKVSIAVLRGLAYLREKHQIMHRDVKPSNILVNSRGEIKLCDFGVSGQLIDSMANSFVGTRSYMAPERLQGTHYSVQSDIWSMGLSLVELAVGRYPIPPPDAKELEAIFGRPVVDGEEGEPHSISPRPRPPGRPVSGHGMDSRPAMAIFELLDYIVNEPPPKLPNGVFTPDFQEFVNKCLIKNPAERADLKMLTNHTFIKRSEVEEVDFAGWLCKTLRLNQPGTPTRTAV

[24] = biological target: Dual specificity mitogen-activated protein kinase kinase 5 (Homo sapiens) (UniProt Q13163); details: Compound concentration 1000.0 nM
[25] = biological target: Misshapen-like kinase 1 (Homo sapiens) (UniProt Q8N4C8); details: Compound concentration 1000.0 nM
[26] = biological target: Mitogen-activated protein kinase kinase kinase 11 (Homo sapiens) (UniProt Q16584); details: Compound concentration 1000.0 nM
[27] = biological target: Serine/threonine-protein kinase 4 (Homo sapiens) (UniProt Q13043); details: Compound concentration 1000.0 nM
[28] = biological target: Serine/threonine-protein kinase 3 (Homo sapiens) (UniProt Q13188); details: Compound concentration 1000.0 nM
[29] = biological target: Serine/threonine-protein kinase Nek1 (Homo sapiens) (UniProt Q96PY6); details: Compound concentration 1000.0 nM
[30] = biological target: Serine/threonine-protein kinase Nek6 (Homo sapiens) (UniProt Q9HC98); details: Compound concentration 1000.0 nM
[31] = biological target: Serine/threonine-protein kinase Nek9 (Homo sapiens) (UniProt Q8TD19); details: Compound concentration 1000.0 nM
Sequence of Serine/threonine-protein kinase Nek9 (Homo sapiens) (Q8TD19 whole entry): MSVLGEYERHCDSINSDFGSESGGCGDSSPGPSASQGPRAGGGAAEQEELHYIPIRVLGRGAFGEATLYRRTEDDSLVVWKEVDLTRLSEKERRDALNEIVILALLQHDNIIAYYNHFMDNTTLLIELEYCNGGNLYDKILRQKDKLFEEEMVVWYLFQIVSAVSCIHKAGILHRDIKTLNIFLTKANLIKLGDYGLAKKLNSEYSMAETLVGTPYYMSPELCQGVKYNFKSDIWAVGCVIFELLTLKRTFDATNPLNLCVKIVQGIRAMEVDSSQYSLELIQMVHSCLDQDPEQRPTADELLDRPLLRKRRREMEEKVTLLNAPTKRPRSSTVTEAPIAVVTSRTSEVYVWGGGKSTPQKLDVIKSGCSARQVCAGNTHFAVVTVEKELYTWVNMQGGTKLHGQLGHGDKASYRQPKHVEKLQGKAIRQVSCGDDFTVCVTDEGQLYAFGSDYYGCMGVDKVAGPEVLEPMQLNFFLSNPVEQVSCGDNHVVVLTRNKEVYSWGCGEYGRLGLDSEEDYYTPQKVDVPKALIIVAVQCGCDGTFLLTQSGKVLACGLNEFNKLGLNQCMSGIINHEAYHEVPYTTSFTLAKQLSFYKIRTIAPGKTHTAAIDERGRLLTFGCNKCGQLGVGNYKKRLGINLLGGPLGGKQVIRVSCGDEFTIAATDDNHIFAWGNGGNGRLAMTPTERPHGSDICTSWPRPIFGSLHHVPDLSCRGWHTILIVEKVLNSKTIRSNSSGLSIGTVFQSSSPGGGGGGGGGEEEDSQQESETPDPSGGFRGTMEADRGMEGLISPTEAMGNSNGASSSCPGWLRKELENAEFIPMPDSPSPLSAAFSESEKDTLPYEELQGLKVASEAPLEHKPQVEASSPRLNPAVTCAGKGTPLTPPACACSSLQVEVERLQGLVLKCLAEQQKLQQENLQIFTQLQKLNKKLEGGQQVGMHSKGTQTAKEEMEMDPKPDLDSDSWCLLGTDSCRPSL

[32] = biological target: Platelet-derived growth factor receptor beta (Homo sapiens) (UniProt P09619); details: Compound concentration 1000.0 nM
[33] = biological target: 3-phosphoinositide-dependent protein kinase 1 (Homo sapiens) (UniProt O15530); details: Compound concentration 1000.0 nM
[34] = biological target: Serine/threonine-protein kinase pim-3 (Homo sapiens) (UniProt Q86V86); details: Compound concentration 1000.0 nM
[35] = biological target: Serine/threonine-protein kinase SIK3 (Homo sapiens) (UniProt Q9Y2K2); details: Compound concentration 1000.0 nM
[36] = biological target: Serine/threonine-protein kinase RIO2 (Homo sapiens) (UniProt Q9BVS4); details: Compound concentration 1000.0 nM
[37] = biological target: Serine/threonine-protein kinase 33 (Homo sapiens) (UniProt Q9BYT3); details: Compound concentration 1000.0 nM
[38] = biological target: NT-3 growth factor receptor (Homo sapiens) (UniProt Q16288); details: Compound concentration 1000.0 nM
Sequence of NT-3 growth factor receptor (Homo sapiens) (Q16288 32-839 limits assumed): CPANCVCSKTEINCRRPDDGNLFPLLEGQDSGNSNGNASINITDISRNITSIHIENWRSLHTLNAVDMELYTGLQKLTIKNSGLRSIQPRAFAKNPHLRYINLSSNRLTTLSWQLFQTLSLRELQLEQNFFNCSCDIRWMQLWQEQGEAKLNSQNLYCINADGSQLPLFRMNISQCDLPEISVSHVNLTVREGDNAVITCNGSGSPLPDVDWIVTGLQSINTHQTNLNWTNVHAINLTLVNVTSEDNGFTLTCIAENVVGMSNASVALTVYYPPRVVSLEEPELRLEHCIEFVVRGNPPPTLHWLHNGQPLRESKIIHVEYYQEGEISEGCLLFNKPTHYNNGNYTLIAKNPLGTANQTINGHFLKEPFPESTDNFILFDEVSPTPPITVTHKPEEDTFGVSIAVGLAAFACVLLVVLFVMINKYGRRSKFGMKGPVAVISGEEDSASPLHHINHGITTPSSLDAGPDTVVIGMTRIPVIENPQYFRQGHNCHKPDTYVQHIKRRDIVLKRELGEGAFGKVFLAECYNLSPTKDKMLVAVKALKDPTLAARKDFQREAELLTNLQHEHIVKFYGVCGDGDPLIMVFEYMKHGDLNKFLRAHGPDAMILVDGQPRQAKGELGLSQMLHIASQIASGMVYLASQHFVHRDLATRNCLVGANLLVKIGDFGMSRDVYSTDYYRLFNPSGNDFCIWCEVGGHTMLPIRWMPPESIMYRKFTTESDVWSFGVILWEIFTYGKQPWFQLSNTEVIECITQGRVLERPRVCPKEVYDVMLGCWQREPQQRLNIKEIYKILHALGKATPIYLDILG

[39] = biological target: Serine/threonine-protein kinase ULK2 (Homo sapiens) (UniProt Q8IYT8); details: Compound concentration 1000.0 nM
[40] = biological target: Serine/threonine-protein kinase ULK3 (Homo sapiens) (UniProt Q6PHR2); details: Compound concentration 1000.0 nM
[41] = biological target: Tyrosine-protein kinase Yes (Homo sapiens) (UniProt P07947); details: Compound concentration 1000.0 nM
[42] = biological target: 5-hydroxytryptamine receptor 1B (Homo sapiens) (UniProt P28222); details: Compound concentration 10.0 uM
[43] = biological target: 5-hydroxytryptamine receptor 1D (Homo sapiens) (UniProt P28221); details: Compound concentration 10.0 uM
[44] = biological target: D(2) dopamine receptor (Homo sapiens) (UniProt P14416); details: Compound concentration 10.0 uM
[45] = biological target: Delta-type opioid receptor (Homo sapiens) (UniProt P41143); details: Compound concentration 10.0 uM
[46] = biological target: Beta-2 adrenergic receptor (Homo sapiens) (UniProt P07550); details: Compound concentration 10.0 uM

Sequence of ALK tyrosine kinase receptor (Homo sapiens), Q9UM73 [L1196M] (Q9UM73 whole entry L1196M, looked up): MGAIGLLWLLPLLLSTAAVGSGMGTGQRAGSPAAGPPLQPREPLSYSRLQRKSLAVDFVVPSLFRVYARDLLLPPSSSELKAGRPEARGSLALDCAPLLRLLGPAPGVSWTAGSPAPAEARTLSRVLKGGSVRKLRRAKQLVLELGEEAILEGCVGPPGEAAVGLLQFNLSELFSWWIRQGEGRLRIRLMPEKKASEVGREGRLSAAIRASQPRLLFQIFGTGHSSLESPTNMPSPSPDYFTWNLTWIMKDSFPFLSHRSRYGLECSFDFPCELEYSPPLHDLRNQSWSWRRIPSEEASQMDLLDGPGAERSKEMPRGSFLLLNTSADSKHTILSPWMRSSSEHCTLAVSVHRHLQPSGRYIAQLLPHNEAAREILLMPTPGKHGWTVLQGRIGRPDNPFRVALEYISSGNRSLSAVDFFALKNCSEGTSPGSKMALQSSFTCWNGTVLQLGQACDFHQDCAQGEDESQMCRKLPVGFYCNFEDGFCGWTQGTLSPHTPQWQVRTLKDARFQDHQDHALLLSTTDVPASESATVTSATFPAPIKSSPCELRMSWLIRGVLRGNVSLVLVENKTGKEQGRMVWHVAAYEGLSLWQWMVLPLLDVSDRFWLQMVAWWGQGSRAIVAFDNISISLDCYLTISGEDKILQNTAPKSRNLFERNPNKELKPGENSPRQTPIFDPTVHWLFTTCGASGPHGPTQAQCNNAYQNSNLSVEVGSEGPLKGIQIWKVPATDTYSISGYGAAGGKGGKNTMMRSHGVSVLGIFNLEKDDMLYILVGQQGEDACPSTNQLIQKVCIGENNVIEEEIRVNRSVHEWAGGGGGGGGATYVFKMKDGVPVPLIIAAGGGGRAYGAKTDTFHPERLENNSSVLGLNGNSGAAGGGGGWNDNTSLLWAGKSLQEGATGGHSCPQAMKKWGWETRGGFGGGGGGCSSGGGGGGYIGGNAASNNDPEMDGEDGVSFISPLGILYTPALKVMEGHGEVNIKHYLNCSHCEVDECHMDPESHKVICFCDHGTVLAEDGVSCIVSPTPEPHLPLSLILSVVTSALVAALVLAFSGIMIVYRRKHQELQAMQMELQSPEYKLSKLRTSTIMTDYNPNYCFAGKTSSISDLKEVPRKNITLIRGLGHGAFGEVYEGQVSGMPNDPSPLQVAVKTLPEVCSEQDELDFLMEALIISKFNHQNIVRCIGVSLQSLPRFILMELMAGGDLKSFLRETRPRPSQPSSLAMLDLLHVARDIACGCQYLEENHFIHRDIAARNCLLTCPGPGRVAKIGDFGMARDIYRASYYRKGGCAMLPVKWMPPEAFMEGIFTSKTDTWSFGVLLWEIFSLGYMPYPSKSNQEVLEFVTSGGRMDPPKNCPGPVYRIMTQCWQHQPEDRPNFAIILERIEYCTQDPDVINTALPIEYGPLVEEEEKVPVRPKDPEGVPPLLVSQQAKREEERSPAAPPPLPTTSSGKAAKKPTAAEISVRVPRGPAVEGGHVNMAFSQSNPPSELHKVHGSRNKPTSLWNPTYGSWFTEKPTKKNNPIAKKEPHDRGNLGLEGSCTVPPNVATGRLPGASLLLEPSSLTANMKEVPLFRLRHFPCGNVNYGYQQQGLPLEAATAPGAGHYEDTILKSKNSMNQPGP

## COc1cccc(CNC(=O)c2nc3scc(COCc4ccc(C(=O)O)cc4)c3c(=O)[nH]2)c1 [T-26c]
[1]
  Ki: 98 nM
[2]
  residual activity: 86.4%
[3]
  residual activity: 94.8%
[4]
  residual activity: 71.3%
[5]
  residual activity: 100%
[6]
  residual activity: 95.7%
[7]
  residual activity: 100%
[8]
  residual activity: 100%
[9]
  residual activity: 95.6%
[10]
  residual activity: 100%
[11]
  residual activity: 60.4%
[12]
  residual activity: 98.7%
[13]
  residual activity: 100%
[14]
  residual activity: 90.9%
[15]
  residual activity: 100%
[16]
  residual activity: 63%
[17]
  residual activity: 72.5%
[18]
  residual activity: 100%
[19]
  residual activity: 100%
[20]
  residual activity: 100%
[21]
  residual activity: 94.6%
[22]
  residual activity: 99.8%
[23]
  residual activity: 75.1%
[24]
  residual activity: 100%
[25]
  residual activity: 74.9%
[26]
  residual activity: 100%
[27]
  residual activity: 75%
[28]
  residual activity: 100%
[29]
  residual activity: 100%
[30]
  residual activity: 71%
[31]
  residual activity: 98.2%
[32]
  residual activity: 99%
[33]
  residual activity: 87.8%
[34]
  residual activity: 100%
[35]
  residual activity: 63.5%
[36]
  residual activity: 72.4%
[37]
  residual activity: 100%
[38]
  residual activity: 76.3%
[39]
  residual activity: 70.8%
[40]
  residual activity: 76%
[41]
  residual activity: 85.2%
[42]
  inhibition: 15.9%
[43]
  inhibition: -1.39%
[44]
  inhibition: 7.09%
[45]
  inhibition: -5.04%
[46]
  inhibition: 25.4%
